This note sets out measurements from ChEMBL document CHEMBL4256941, “Histone demethylase inhibitors” (2016).

In general, IC50 refers to the point on the concentration scale where inhibition reaches its midpoint.

Experiment [1] addresses Lysine-specific demethylase 5A (Homo sapiens, UniProt P29375). In words: Inhibition of recombinant human C-terminal FLAG-tagged JARID1A (1 to 1090 residues) expressed in baculovirus infected sf9 cells using H3K4me3-biotin peptide as substrate after 30 mins in presence of alpha-ketoglutaric acid by LANCE TR-FRET assay.
The target in experiment [2] is Lysine-specific demethylase 5B (Homo sapiens, UniProt Q9UGL1). Description: Inhibition of recombinant human N-terminal His-FLAG tagged JARID1B (2 to 751 residues) expressed in baculovirus infected sf9 cells using H3K4me3-biotin peptide as substrate after 30 mins in presence of alpha-ketoglutaric acid by LANCE TR-FRET assay. On the technique in general: TR-FRET usually uses a lanthanide donor and a delayed reading to cut background.
Sequence of Lysine-specific demethylase 5B (Q9UGL1 whole entry, the tested form may be a part): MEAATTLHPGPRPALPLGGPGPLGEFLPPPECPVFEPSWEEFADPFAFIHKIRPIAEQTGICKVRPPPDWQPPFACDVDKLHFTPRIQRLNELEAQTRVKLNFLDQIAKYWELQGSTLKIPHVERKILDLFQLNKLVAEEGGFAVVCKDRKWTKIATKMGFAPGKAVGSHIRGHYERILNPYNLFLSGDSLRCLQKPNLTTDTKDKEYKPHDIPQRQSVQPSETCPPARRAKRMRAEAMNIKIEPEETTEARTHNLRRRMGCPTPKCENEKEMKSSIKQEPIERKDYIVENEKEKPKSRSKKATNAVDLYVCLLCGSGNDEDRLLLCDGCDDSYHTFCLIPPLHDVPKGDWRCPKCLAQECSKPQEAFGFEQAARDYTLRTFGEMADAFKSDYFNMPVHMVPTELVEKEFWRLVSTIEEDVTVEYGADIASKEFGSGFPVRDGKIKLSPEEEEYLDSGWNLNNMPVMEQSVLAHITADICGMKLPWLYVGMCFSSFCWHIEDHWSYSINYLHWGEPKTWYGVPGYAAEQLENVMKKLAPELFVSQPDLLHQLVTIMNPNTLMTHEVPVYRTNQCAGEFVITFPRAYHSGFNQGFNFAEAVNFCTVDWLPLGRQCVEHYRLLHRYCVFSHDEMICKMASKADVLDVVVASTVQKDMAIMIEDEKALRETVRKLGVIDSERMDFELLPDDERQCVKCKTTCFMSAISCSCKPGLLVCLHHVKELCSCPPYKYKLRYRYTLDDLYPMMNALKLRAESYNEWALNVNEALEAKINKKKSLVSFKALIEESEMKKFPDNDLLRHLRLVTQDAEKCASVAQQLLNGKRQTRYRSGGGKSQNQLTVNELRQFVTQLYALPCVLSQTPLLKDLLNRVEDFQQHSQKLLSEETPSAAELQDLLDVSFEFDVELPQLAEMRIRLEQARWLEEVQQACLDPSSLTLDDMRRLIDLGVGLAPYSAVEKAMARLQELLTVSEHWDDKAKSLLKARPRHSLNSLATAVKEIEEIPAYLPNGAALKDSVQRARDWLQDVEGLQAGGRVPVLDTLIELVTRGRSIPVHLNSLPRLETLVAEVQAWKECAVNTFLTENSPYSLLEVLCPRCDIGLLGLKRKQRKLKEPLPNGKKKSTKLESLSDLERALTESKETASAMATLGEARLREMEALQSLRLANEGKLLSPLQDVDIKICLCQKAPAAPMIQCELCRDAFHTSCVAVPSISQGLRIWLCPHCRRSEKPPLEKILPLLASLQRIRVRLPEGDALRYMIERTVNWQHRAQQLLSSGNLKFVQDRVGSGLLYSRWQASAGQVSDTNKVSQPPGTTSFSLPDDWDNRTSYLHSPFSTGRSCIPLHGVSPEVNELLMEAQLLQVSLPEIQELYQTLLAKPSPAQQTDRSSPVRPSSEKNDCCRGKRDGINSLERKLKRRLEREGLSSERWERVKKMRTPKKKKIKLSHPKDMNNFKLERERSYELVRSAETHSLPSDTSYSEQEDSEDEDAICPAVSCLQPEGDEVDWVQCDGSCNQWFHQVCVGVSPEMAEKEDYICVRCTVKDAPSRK

The target of experiment [3] is T1, Lysine-specific demethylase 4C (Homo sapiens, UniProt Q9H3R0).
T1 sequence (Q9H3R0 whole entry): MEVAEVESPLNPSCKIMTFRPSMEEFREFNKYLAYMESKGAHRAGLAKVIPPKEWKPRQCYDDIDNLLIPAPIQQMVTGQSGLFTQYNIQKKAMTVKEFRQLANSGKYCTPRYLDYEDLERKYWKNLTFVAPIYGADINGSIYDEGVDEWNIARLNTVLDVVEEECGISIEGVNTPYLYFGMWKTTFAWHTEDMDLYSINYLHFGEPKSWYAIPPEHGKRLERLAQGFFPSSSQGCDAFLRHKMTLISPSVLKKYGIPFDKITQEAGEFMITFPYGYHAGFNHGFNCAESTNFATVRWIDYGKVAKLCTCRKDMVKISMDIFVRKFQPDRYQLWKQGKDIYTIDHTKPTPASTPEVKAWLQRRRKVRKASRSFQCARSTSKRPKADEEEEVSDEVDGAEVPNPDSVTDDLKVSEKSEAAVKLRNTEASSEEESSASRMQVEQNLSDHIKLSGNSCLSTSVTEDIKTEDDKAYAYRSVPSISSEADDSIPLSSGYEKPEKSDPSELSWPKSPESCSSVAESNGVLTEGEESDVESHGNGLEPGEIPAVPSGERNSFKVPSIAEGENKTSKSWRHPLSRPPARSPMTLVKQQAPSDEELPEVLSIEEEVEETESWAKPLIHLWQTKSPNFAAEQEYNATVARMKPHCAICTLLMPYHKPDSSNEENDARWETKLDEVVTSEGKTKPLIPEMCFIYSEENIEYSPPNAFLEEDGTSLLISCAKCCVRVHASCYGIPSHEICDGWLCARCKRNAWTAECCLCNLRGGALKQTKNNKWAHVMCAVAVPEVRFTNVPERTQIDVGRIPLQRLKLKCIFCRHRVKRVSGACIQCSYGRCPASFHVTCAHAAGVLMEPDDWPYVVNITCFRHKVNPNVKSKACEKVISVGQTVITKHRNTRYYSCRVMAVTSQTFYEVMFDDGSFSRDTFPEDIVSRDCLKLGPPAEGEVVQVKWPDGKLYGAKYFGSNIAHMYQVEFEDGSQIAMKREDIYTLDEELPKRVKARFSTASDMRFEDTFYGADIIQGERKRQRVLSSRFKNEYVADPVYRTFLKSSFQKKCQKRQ
In words: Inhibition of recombinant human N-terminal GST-tagged JMJD2C (2 to 372 residues) expressed in baculovirus infected sf9 cells using H3K9me3-biotin peptide as substrate after 30 mins in presence of alpha-ketoglutaric acid by LANCE TR-FRET assay.

The structures appear in SMILES notation.

Sequence of Lysine-specific demethylase 5A (P29375 whole entry, the tested form may be a part): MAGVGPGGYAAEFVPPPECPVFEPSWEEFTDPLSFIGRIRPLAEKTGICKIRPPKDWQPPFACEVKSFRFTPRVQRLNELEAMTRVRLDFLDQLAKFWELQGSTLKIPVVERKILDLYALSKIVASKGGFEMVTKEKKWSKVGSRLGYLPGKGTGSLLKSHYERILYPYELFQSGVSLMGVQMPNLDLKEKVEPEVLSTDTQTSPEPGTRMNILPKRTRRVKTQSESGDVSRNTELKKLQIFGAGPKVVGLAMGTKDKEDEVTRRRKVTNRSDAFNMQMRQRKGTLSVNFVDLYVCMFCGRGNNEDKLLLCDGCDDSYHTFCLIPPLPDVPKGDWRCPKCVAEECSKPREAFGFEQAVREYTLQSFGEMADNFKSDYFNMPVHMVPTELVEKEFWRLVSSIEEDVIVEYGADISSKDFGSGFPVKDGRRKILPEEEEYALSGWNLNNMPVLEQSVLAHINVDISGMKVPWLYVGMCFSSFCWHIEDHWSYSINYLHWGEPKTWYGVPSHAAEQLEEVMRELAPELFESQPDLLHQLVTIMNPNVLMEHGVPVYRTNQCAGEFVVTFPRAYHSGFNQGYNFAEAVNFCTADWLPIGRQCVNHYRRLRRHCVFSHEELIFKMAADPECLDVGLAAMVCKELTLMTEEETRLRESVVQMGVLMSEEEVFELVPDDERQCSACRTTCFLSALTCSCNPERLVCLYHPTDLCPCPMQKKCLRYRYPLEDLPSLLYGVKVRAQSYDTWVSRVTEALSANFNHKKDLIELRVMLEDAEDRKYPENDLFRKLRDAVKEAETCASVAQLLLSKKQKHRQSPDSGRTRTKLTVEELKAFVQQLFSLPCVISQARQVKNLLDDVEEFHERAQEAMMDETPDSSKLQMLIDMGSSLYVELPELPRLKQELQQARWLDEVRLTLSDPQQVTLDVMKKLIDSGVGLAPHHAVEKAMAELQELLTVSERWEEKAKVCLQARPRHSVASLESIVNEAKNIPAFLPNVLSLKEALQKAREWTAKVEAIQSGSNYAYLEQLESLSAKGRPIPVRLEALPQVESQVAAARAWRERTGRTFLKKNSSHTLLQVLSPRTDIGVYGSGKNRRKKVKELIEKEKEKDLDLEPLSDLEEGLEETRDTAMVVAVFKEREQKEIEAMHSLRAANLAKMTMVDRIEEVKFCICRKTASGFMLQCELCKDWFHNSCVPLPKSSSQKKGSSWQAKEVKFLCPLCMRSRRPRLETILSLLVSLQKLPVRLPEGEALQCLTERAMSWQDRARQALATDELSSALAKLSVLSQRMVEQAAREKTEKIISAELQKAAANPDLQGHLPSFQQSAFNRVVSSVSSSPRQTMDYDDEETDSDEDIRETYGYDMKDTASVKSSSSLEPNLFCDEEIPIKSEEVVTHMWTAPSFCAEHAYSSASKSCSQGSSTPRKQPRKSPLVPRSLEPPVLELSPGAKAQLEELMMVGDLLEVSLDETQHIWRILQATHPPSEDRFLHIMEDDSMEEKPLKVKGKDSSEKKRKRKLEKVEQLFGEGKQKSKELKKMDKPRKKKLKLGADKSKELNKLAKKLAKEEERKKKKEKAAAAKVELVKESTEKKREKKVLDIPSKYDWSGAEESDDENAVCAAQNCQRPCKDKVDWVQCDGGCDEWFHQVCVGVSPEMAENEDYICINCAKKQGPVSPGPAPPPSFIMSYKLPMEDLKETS

For the compound `O=C(O)c1ccnc(-n2nccc2OCc2ccc(F)c(OCc3ccc(F)cc3)c2)c1`, the concentration for half-maximal inhibition (IC50) in experiment [1] was at most 0.1 µM; in experiment [2], at most 0.1 µM; in experiment [3], 0.1 to 1 µM.
